According to patent US8754067B2, “22-haloacetoxy-homopregnacalciferol analogs and their uses” (Wisconsin Alumni Research Foundation, priority 2010, dated 2014):

Columns and labels:
[1] = tested on: bone calcium mobilization; assay: Bone calcium mobilization (serum calcium) in vitamin D-deficient rats; format: in vivo, rat; details: vitamin D-deficient rats on 0.02% Ca diet, FIG. 7
Description: (§1) Male, weanling Sprague-Dawley rats were placed on Diet 11 (Suda et al, J. Nutr. 100:1049, 1970) (0.47% Ca)+AEK oil for one week followed by Diet 11 (0.02% Ca)+AEK oil for 3 weeks. The rats were then switched to the same diet containing 0.47% Ca for one week followed by two weeks on the same diet containing 0.02% Ca. Dose administration began during the last week on 0.02% calcium diet. Four consecutive intraperitoneal (ip) doses were given approximately 24 hours apart. Twenty-four hours after the last dose, blood was collected from the severed neck and the concentration of serum calcium determined by atomic absorption spectrometry as a measure of bone calcium mobilization. The first 10 cm of the intestine was also collected for intestinal calcium transport analysis using the everted gut sac method.

[2] = tested on: H-82 lung carcinoma cells; assay: Cell viability, H-82 lung carcinoma cells; format: cell-based; details: four days growth, methylene blue; FIG. 5A/5B
Description: (§2) Various cell lines were plated, administered a range of drug concentrations one time, allowed to grow for four days and then the number of cells present counted and expressed as a percentage of those present in the vehicle control plates. […] The number of live cells was expressed as a percentage of the total present. Each assay was done in duplicate.

[3] = tested on: HL-60 leukemia cells; assay: Cell viability, HL-60 leukemia cells; format: cell-based, human; details: four days growth, methylene blue; FIG. 4A/4B
Description: as §2

[4] = tested on: DU-145 prostate cells; assay: Cell viability, DU-145 prostate cells; format: cell-based; details: four days growth, methylene blue; FIG. 6A/6B
Description: as §2

[5] = tested on: intestinal calcium transport; assay: Intestinal calcium transport (everted gut sac) in vitamin D-deficient rats; format: in vivo, rat; details: 4 consecutive ip doses, FIG. 8
Description: as §1

[6] = tested on: HL-60 leukemia cells; assay: HL-60 differentiation (nitro blue tetrazolium reduction); format: cell-based, human; details: FIG. 2
Description: The study drugs were dissolved in ethanol and the concentrations determined using UV spectrophotometry. Serial dilutions were prepared so that a range of drug concentrations could be tested without changing the final concentration of ethanol (≦0.2%) present in the cell cultures.
Human promyelocytic leukemia (HL60) cells were grown in RPMI-1640 medium containing 10% fetal bovine serum. The cells were incubated at 37° C. in the presence of 5% CO2.
HL60 cells were plated at 1.2×10^5 cells/ml. Eighteen hours after plating, cells in duplicate were treated with drug. Four days later, the cells were harvested and a nitro blue tetrazolium reduction assay was performed (Collins et al., 1979; J. Exp. Med. 149:969-974). The percentage of differentiated cells was determined by counting a total of 200 cells and recording the number that contained intracellular black-blue formazan deposits. Verification of differentiation to monocytic cells was determined by measuring phagocytic activity (data not shown).

[7] = tested on: 24-hydroxylase (24 Ohase) gene promoter in ROS 17/2.8 (bone) cells; assay: In vitro transcription assay (luciferase reporter); format: cell-based; details: ROS 17/2.8 cells, 16 hours after dosing; FIG. 3; read-out: EC50, transcriptional activity in bone cells
Description: Transcription activity was measured in ROS 17/2.8 (bone) cells that were stably transfected with a 24-hydroxylase (24 Ohase) gene promoter upstream of a luciferase reporter gene (Arbour et al., 1998). Cells were given a range of doses. Sixteen hours after dosing the cells were harvested and luciferase activities were measured using a luminometer. RLU=relative luciferase units.

[8] = target: T1, full-length recombinant rat vitamin D receptor (Rattus norvegicus, UniProt P13053); assay: Vitamin D receptor binding, competition with [3H]-1,25(OH)2D3; details: FIG. 1
T1 construct: Full-length recombinant rat receptor was expressed in E. coli; histidine tag (C); made in house; host or cells: E. coli BL21 (DE3) Codon Plus RIL
T1 sequence (P13053 1-423): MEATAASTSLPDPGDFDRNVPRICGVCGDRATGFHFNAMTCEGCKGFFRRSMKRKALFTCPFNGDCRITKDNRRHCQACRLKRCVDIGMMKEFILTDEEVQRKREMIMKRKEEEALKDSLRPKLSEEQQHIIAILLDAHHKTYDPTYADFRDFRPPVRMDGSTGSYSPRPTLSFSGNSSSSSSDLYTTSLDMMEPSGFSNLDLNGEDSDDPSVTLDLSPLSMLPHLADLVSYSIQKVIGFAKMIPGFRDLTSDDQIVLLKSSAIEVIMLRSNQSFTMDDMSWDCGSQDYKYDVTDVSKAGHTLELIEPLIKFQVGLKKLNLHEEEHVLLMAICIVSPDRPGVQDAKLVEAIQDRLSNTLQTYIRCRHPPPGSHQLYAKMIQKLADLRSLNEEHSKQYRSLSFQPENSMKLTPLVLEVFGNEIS
Description: Full-length recombinant rat receptor was expressed in E. coli BL21 (DE3) Codon Plus RIL cells and purified to homogeneity using two different column chromatography systems. The first system was a nickel affinity resin that utilizes the C-terminal histidine tag on this protein. The protein that was eluted from this resin was further purified using ion exchange chromatography (S-Sepharose Fast Flow). Aliquots of the purified protein were quick frozen in liquid nitrogen and stored at −80° C. until use. For use in binding assays, the protein was diluted in TEDK50 (50 mM Tris, 1.5 mM EDTA, pH7.4, 5 mM DTT, 150 mM KCl) with 0.1% Chaps detergent. The receptor protein and ligand concentration was optimized such that no more than 20% of the added radiolabeled ligand was bound to the receptor.
Radiolabeled and unlabeled ligands were added to 100 mcl of the diluted protein at a final ethanol concentration of ≦10%, mixed and incubated overnight on ice to reach binding equilibrium. The following day, 100 mcl of hydroxylapatite slurry (50%) was added to each tube and mixed at 10-minute intervals for 30 minutes. […] After the final wash, the pellets were transferred to scintillation vials containing 4 ml of Biosafe II scintillation cocktail, mixed and placed in a scintillation counter. Total binding was determined from the tubes containing only radiolabeled ligand.

[9] = Body weight of dosed animals; format: in vivo, rat; details: various doses, throughout the test period; FIG. 9
Description: as §1

Structure (SMILES) | bone calcium mobilization (serum calcium) ([1]; 780 pmol, 4 consecutive ip doses) | cell viability of H-82 lung carcinoma cells [2] | cell viability of HL-60 leukemia cells [3] | cell viability of DU-145 prostate cells [4] | intestinal calcium transport activity ([5]; 780 pmol) | EC50 ([6]; four days after treatment, read-out: EC50, HL-60 cell differentiation) [nM] | bone calcium mobilization (serum calcium) ([1]; 105,300 pmol/day ip for 4 consecutive days) | EC50 [7] [nM] | Ki ([8]; full-length recombinant rat VDR) [nM] | times less active than 1α,25-dihydroxyvitamin D3 in VDR binding ([8]; relative to natural hormone) [times] | change in body weight [9] | intestinal calcium transport activity ([5]; 35,100 pmol/rat) | HL-60 cell differentiation activity [6]
C=C1/C(=C\C=C2/CCC[C@]3(C)[C@@H]([C@H](C)CCCC(C)(C)O)CC[C@@H]23)C[C@@H](O)C[C@@H]1O [1,25(OH)2D3, 1α,25-dihydroxyvitamin D3, reference compound] | significant increases in serum calcium | does not have any significant effect | does not have any significant effect | neither AB-47 nor 1,25(OH)2D3 have any significant effect | significant increase in activity | 2 | – | – | – | – | – | – | –
C=C1CC[C@H](O)C/C1=C/C=C1\CCC[C@]2(C)[C@@H]([C@H](C)COC(=O)CBr)CC[C@@H]12 [AB-47, 22-bromoacetoxy-homopregnacalciferol] | – | kills H-82 lung carcinoma cells | kills HL-60 leukemia cells | neither AB-47 nor 1,25(OH)2D3 have any significant effect | – | – | little or no mobilization of bone calcium | > 1000 | 3 | 100 | substantially maintain their body weight | little to no activity | does not promote HL60 differentiation
